According to patent US8252796B2, “1-butyl-2-hydroxyaralkyl piperazine derivatives and the uses as anti-depression medicine thereof” (CSPC Zhonggi Pharmaceutical Technology (Shijiazhuang) Co. …, priority 2008, dated 2012):
Read-outs that look alike come from different tables or passages of the source. Values belong to the molecule of their own block, whether it stands above or below them.

What was measured:
[1] = molecular target: T1, reuptake of DA by brain synaptosomes (striatum) (Rattus norvegicus, UniProt P23977); assay: Inhibition of [3H]DA reuptake by rat brain synaptosomes, single concentration (Example 35); assay type: biochemical; conditions: test substance 10 μmol/L; inhibitory rate of 0.1 mM 6-hydroxy DA taken as 100%
T1 construct: from tissue; host or cells: rat striatum synaptosomes
T1 sequence (P23977 whole entry): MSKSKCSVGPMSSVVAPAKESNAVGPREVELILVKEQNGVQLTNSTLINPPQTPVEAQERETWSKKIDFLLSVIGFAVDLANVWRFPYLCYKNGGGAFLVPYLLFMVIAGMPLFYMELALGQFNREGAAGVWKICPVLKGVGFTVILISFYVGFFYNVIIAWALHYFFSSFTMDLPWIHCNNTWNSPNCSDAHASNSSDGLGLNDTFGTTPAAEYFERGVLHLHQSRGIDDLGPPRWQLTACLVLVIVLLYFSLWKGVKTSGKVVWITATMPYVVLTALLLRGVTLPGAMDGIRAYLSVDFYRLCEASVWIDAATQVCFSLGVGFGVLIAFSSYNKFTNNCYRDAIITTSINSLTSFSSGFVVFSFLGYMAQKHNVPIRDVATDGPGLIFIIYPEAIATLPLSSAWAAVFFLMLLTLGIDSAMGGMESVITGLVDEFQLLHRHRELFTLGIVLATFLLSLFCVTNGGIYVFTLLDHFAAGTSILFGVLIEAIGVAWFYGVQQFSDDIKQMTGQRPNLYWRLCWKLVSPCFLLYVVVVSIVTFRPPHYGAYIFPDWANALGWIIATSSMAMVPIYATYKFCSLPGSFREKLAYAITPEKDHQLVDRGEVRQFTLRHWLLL
Experimental: (§1) Studies on the reuptake of monoamine neurotransmitters by brain synaptosomes was performed, which is a currently important mean adopted in the worldwide in pharmacological studies of central nervous. This method can not only be used to study the action mechanism of a drug, but also be used for screening new drugs acting by this mechanism.
(§2) Male SD rats were sacrificed by cervical dislocation and then the brains thereof were taken out rapidly by decollation and placed on ice. Related rain tissues (for [^3H]5-HT and [^3H]NA reuptake experiment, prefrontal cortex was taken; for [^3H]DA reuptake experiment, striatum was taken) were separated and weighed. 10 times (V/W) of 0.32 mol/L ice-cold sucrose solution was added and was homogenized electrically with glass-teflon. The homogenate was centrifugated at 4° C. at 1000 g×10 min. Then the supernatant was taken and centrifugated at 4° C. at 17000 g×20 min. The precipitation was suspended in 30 volume of KRH Buffer (125 mM NaCl, 4.8 mM KCl, 1.2 mM CaCl2, 1.2 mM MgSO4, 1.0 mM KH2PO4, 22 mM NaHCO3, 25 mM HEPES, 10 mM Glucose, 10 μM Pargyline, 0.2 mg/ml Ascorbic Acid) and then was preserved in an ice bath for use. (for NA reuptake experiment, the cortex needed was suspended in 20 volume of KRH Buffer)
(§3) Stock solution of the test substance was thawed immediately before use and diluted with KBH Buffer to 100 μmol/L, 50 μl thereof was added in 500 μl of total reaction system, and the final concentration was 10 μmol/L. Then 50 μl suspended synaptic prepared above was added and mixed evenly, incubated in water bath for 30 min at 37° C. Then […] [^3H] 5-HT (50 nmol/L [^3H]DA or […] [^3H]NA) was added. After incubated at 37° C. for 10 min, the reaction system was immediately taken out and the reaction was stopped by adding 2 ml of ice-cold 150 mmol/L Tris-HCl buffer solution. The samples were collected on the circular fiberglass membrane by vacuum filtration, and the membrane was washed 3 times with 3 ml of ice-cold Tris-HCl buffer solution. The filtration membrane was removed, baked for 15 min in a far-infrared oven and placed into an EP tube. 1.5 ml scintillation fluid was added overnight and was tested by liquid scintillation counter. For the solvent control total binding tube and the non-specific binding tube, no test substance was added; for the total binding tube, 50 μl solvent was added.

[2] = molecular target: T2, reuptake of 5-HT by brain synaptosomes (prefrontal cortex) (Rattus norvegicus, UniProt P31652); assay: Inhibition of [3H]5-HT reuptake by rat brain synaptosomes, single concentration (Example 35); assay type: biochemical; conditions: test substance 10 μmol/L; inhibitory rate of 0.1 mM venlafaxine taken as 100%
T2 construct: from tissue; host or cells: rat prefrontal cortex synaptosomes
T2 sequence (P31652 whole entry): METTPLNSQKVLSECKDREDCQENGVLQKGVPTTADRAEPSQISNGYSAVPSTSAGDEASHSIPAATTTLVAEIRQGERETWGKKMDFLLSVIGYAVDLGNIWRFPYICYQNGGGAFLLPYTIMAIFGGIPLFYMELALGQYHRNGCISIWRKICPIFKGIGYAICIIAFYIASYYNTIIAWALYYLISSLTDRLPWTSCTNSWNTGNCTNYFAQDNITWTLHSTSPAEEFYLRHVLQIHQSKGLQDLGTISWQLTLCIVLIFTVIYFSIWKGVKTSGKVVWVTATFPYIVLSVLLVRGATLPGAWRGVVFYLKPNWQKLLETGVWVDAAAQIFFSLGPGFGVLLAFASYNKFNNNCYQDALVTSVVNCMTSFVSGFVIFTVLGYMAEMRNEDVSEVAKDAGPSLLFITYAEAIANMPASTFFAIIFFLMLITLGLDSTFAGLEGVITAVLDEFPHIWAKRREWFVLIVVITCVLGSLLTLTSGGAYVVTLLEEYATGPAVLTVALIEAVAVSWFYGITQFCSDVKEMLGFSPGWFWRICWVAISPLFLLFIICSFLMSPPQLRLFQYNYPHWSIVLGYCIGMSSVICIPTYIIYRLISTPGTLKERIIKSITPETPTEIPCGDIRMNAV
Experimental: as §1, §2, §3

[3] = molecular target: T3, reuptake of NA by brain synaptosomes (prefrontal cortex) (Rattus norvegicus, UniProt Q9WTR4); assay: Inhibition of [3H]NA reuptake by rat brain synaptosomes, single concentration (Example 35); assay type: biochemical; conditions: test substance 10 μmol/L; inhibitory rate of 0.1 mM venlafaxine taken as 100%
T3 construct: from tissue; host or cells: rat prefrontal cortex synaptosomes
T3 sequence (Q9WTR4 1-597): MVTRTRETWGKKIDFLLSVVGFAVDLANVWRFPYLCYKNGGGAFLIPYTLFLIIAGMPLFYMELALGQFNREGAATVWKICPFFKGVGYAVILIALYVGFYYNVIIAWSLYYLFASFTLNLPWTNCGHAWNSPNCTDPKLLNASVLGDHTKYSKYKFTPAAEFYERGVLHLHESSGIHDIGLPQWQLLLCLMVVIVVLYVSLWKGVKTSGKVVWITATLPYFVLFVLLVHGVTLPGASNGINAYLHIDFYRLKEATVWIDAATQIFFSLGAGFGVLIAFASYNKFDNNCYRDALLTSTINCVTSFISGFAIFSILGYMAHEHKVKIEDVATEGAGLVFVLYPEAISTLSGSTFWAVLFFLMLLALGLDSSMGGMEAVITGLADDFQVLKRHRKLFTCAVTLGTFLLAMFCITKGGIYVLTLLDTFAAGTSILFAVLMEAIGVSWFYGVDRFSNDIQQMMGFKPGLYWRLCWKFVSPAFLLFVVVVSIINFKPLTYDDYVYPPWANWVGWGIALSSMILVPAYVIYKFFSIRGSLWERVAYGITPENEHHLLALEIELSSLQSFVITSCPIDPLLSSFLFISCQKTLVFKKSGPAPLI
Experimental: as §1, §2, §3

[4] = Pharmacokinetics and bioavailability, single i.v. and oral administration in SD rat; assay type: in vivo; conditions: male, plasma; for Cmax: read-out: Cmax; for AUC (0-t): read-out: AUC (0-t); for half-life: read-out: half life (T½) (converted)
Experimental: To study the pharmacokinetics parameters and the bioavailability of VIII-9, VIII-10 and SIPI5286 when single i.v. and oral administration in SD rat
Eighteen male rats were randomized into 6 groups and were administrated with the three compounds via i.v. and oral route, respectively. The dosage was 10 mg/kg (IV) and 50 mg/kg (PO). The test substance was dissolved in the solution of 5% DMSO/95% HP-β-CD aqueous solution (30%), and were administrated to the animal via i.v. and oral route. Blood plasma was collected at a serial of time points after i.v. and oral administration, and the blood drug concentrations were determined by LC/MS/MS. Then the pharmacokinetics parameters and the bioavailability were calculated based on the blood drug concentrations.

[5] = molecular target: T4, reuptake of [3H]5-HT by prefrontal cortex synaptosomes (Rattus norvegicus, UniProt P31652); assay: IC50 for inhibiting reuptake of [3H]5-HT by brain synaptosomes (Example 36); assay type: biochemical; conditions: mean, n = 3~4
T4 construct: from tissue; host or cells: rat prefrontal cortex synaptosomes
T4 sequence (P31652 whole entry): as the sequence (P31652 whole entry) above
Experimental: as §2, with “The precipitation was suspended in 30 volume of KRH Buffer (125 mM NaCl, 4.8 mM KCl, 1.2 mM CaCl2, 1.2 mM MgSO4, 1.0 mM KH2PO4, 22 mM NaHCO3, 25 mM HEPES, 10 mM Glucose, 10 μM Pargyline, 0.2 mg/ml Ascorbic Acid) and then was preserved in an ice bath for use.” left out
(§4) The compounds were used for the studies on inhibition effect (IC50) on reuptake of [^3H]5-HT/NA/DA. At least 5 concentrations each time were settled for each test compound. Each concentration was determined by the average of double twin tubes and the test was repeated for more than 3 times. A series of concentrations of the compounds were prepared by gradient dilution before use. 50 μl thereof was added in total reaction system. Then 50 μl suspended synaptic membrane was added and mixed evenly, incubated in water bath at 37° C. for 30 min. Then 10 nmol/L [^3H] 5-HT (or 50 nmol/L [^3H]DA or 40 nmol/L [^3H]NA) was added and incubated in water bath at 37° C. for 10 min (for [^3H]NA, incubated for 5 min). For the [^3H]5-HT reuptake experiment, 50 μL of fluoxetine (100 μmol/L) was added to the non-specific binding tube; for the [^3H]DA reuptake experiment, 50 μL of cocaine (600 μmol/L) was added to the non-specific binding tube; for the [^3H]NA reuptake experiment, 50 μL of desipramine (100 μmol/L) was added to the non-specific binding tube; for the solvent control, solvent was added to the total binding tube, but no test compound added.
(§5) Sigmoidal curve fitting was performed for the data obtained from all of the test drugs by Origin 6.1, and the IC50 value was calculated.

[6] = molecular target: T5, reuptake of [3H]NA by prefrontal cortex synaptosomes (Rattus norvegicus, UniProt Q9WTR4); assay: IC50 for inhibiting reuptake of [3H]NA by brain synaptosomes (Example 36); assay type: biochemical; conditions: mean, n = 3~4
T5 construct: from tissue; host or cells: rat prefrontal cortex synaptosomes
T5 sequence (Q9WTR4 1-597): as the sequence (Q9WTR4 1-597) above
Experimental: as §2
(§6) 1. Preparation of Rat Brain Synaptosomes (the Same as Example 35)
as §4, §5

ICR mice = assay: Mice Forced Swimming Test (in vivo antidepression activity); conditions: for swimming test: immobility time: n = 12, mean±SD
[7] = molecular target: T6, reuptake of [3H]DA by striatum synaptosomes (Rattus norvegicus, UniProt P23977); assay: IC50 for inhibiting reuptake of [3H]DA by brain synaptosomes (Example 36); assay type: biochemical; conditions: mean, n = 3~4
T6 construct: from tissue; host or cells: rat striatum synaptosomes
T6 sequence (P23977 whole entry): as the sequence (P23977 whole entry) above
Experimental: as §2, §6, §4, §5

inhibition on the reuptake of DA(%) [1]: 96% | Inhibition on the reuptake of 5-HT(%) [2]: 65.1% | inhibition on the reuptake of NA(%) [3]: 144%
SMILES: CCCC[C@@H]([C@H](O)c1ccc2c(Cl)c(OC)ccc2c1)N1CCN(c2ccccc2OC)CC1 (racemic) [VIII-3, (1SR,2RS)-N^1-o-methoxylphenyl-N^4-[1-butyl-2-(5′-chloro-6′-methoxyl-2′-naphthyl)hydroxyethyl]piperazine]

inhibition on the reuptake of DA(%) [1]: 68% | Inhibition on the reuptake of 5-HT(%) [2]: 23% | inhibition on the reuptake of NA(%) [3]: 146.5%
SMILES: CCCC[C@@H]([C@@H](O)c1ccc2c(Cl)c(OC)ccc2c1)N1CCN(c2ccccc2OC)CC1 (racemic) [VIII-4, (1SR,2SR)-N^1-o-methoxylphenyl-N^4-[1-butyl-2-(5′-chloro-6′-methoxyl-2′-naphthyl)hydroxyethyl]piperazine]

SMILES: CCCC[C@H]([C@@H](O)c1ccc2c(Cl)c(OC)ccc2c1)N1CCN(C(c2ccccc2)c2ccccc2)CC1 (racemic) [VIII-19, (1SR,2RS)-N^1-benzhydryl-N^4-[1-butyl-2-(5′-chloro-6′-methoxyl-2′-naphthyl)hydroxyethyl]piperazine]
inhibition on the reuptake of DA(%) [1]: 95% | Inhibition on the reuptake of 5-HT(%) [2]: 73.4% | inhibition on the reuptake of NA(%) [3]: 103.6%

SMILES: CCCC[C@H]([C@H](O)c1ccc2c(Cl)c(OC)ccc2c1)N1CCN(C(c2ccccc2)c2ccccc2)CC1 (racemic) [VIII-20, (1SR,2SR)-N^1-benzhydryl-N^4-[1-butyl-2-(5′-chloro-6′-methoxyl-2′-naphthyl)hydroxyethyl]piperazine]
inhibition on the reuptake of DA(%) [1]: 57% | Inhibition on the reuptake of 5-HT(%) [2]: 0% | inhibition on the reuptake of NA(%) [3]: 78%

SMILES: CCCC[C@H]([C@@H](O)c1ccc2c(Cl)c(OC)ccc2c1)N1CCN(CC=Cc2ccccc2)CC1 (racemic) [VIII-21, (1SR,2RS)-N^1-cinnamyl-N^4-[1-butyl-2-(5′-chloro-6′-methoxyl-2′-naphthyl)hydroxyethyl]piperazine]
inhibition on the reuptake of DA(%) [1]: 90% | Inhibition on the reuptake of 5-HT(%) [2]: 81% | inhibition on the reuptake of NA(%) [3]: 87.5%

inhibition on the reuptake of DA(%) [1]: 94% | Inhibition on the reuptake of 5-HT(%) [2]: 82.3% | inhibition on the reuptake of NA(%) [3]: 78.9%
SMILES: CCCC[C@@H]([C@@H](O)c1ccc2c(Cl)c(OC)ccc2c1)N1CCN(CC=Cc2ccccc2)CC1 (racemic) [VIII-22, (1SR,2SR)-N^1-cinnamyl-N^4-[1-butyl-2-(5′-chloro-6′-methoxyl-2′-naphthyl)hydroxyethyl]piperazine]

SMILES: NCCc1cc(O)c(O)cc1O [6-hydroxy DA, reference compound]
inhibition on the reuptake of DA(%) [1]: 100%

SMILES: COc1ccc2cc([C@@H](O)[C@H](C)N3CCN(Cc4ccccc4)CC3)ccc2c1Cl [SIPI5286, reference compound]
Cmax ([4]; iv, i.v. 10 mg/kg, (5 min)): 13900 ng/mL | AUC (0-t) ([4]; iv, i.v. 10 mg/kg): 12600 ng·h/mL | half-life ([4]; iv, i.v. 10 mg/kg): 3.41 h | bioavailability ([4]; oral 50 mg/kg vs i.v. 10 mg/kg, read-out: bioavailability): 51.6% | AUC (0-t) ([4]; oral 50 mg/kg): 30300 ng·h/mL | Cmax ([4]; oral 50 mg/kg): 6860 ng/mL | Tmax ([4]; oral 50 mg/kg, read-out: Tmax): 0.5 h | half-life ([4]; oral 50 mg/kg): 5.71 h | IC50 [5]: 12 nM | IC50 [6]: 185 nM | ED50 (ICR mice; Mus musculus, single oral administration): 28.9 mg/kg | swimming test: immobility time (ICR mice; one week oral administration, 10.4 mg/kg): 123.8 ± 21.68 s | swimming test: immobility time (ICR mice; one week oral administration, 17.3 mg/kg): 102.9 ± 37.94 s | swimming test: immobility time (ICR mice; one week oral administration, 28.8 mg/kg): 97.2 ± 28.33 s | swimming test: immobility time (ICR mice; one week oral administration, 48 mg/kg): 95.5 ± 27.0 s | swimming test: immobility time (ICR mice; single oral administration, 10.4 mg/kg): 107.9 ± 37.19 s | swimming test: immobility time (ICR mice; single oral administration, 17.3 mg/kg): 105.4 ± 33.11 s | swimming test: immobility time (ICR mice; single oral administration, 28.8 mg/kg): 92.1 ± 23.11 s | swimming test: immobility time (ICR mice; single oral administration, 48 mg/kg): 90.1 ± 26.02 s | IC50 [7]: 1150 nM

SMILES: COc1ccc2cc(C(O)C(C)N3CCN(Cc4ccccc4)CC3)ccc2c1Cl (centres unmarked) [SIPIyy24, N^1-benzyl-N^4-[1-methyl-2-(5′-chloro-6′-methoxyl-2′-naphthyl) hydroxyethyl]piperazine, reference compound]
IC50 [5]: 200 nM | IC50 [6]: 1000 nM | IC50 [^3H]DA reuptake [7]: No activity detected

SMILES: COc1ccc(C(CN(C)C)C2(O)CCCCC2)cc1 (centres unmarked) [venlafaxine, reference compound]
swimming test: immobility time (ICR mice; one week oral administration, 50 mg/kg): 83.5 ± 29.0 s | inhibition on the reuptake of NA(%) [3]: 100%
